Patent US8673929B2, “4,6-di- and 2,4,6-trisubstituted quinazoline derivatives and pharmaceutical compositions useful for treating viral infections” (priority 2006, dated 2014)

Experiments:
HCV replicon = experiment: Anti-HCV replicon assay, EC50 (luciferase readout); format: cell-based; details: Hepatitis C virus, 72 h; Huh-7 HCV replicon cells, 3 days incubation, luciferase luminescence
Procedure, shortened: (§1)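 Huh-7 cells harbouring an HCV replicon (6000/well) incubated 3 days at 37° C with 3-fold serially diluted compound (0.5% DMSO final where used). EC50 from luciferase luminescence of lysed cells; CC50 from CellTiter-Glo luminescence in parallel plates.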

[1] = CC50 assay in the anti-HCV replicon assay (CellTiter-Glo); format: cell-based, human; details: human, Huh-7 hepatoma cells harbouring an HCV replicon; Huh-7 HCV replicon cells, 3 days incubation, CellTiter-Glo luminescence
Procedure, shortened: as §1

Row | Compound | EC50 (HCV replicon) [µM] | CC50 at 3 days [1] [µM]
1 | Nc1nc(OCC2CCC2)c2cc(-c3cccnc3)ccc2n1 [Example 118, 4-Cyclobutylmethoxy-6-pyridin-3-yl-quinazolin-2-ylamine] | 0.3 to 1 | 10 to 20
2 | N#Cc1cccc(-c2ccc3nc(N)nc(OCC4CCC4)c3c2)c1 [Example 119, 3-(2-Amino-4-cyclobutylmethoxy-quinazolin-6-yl)-benzonitrile] | 1 to 10 | 10 to 20
3 | Nc1nc(OCC2CCC2)c2cc(-c3cn[nH]c3)ccc2n1 [Example 120, 4-Cyclobutylmethoxy-6-(2H-pyrazol-4-yl)-quinazolin-2-ylamine] | 0.3 to 1 | 10 to 20
4 | Nc1nc(OCC2CCC2)c2cc(-c3ccc(F)c(F)c3F)ccc2n1 [Example 121, 4-Cyclobutylmethoxy-6-(2,3,4-trifluoro-phenyl)-quinazolin-2-ylamine] | 1 to 10 | > 20
5 | N#Cc1ccc(-c2ccc3nc(N)nc(OCC4CCC4)c3c2)cc1 [Example 122, 4-(2-Amino-4-cyclobutylmethoxy-quinazolin-6-yl)-benzonitrile] | 1 to 10 | > 20
6 | Nc1nc(OCC2CCC2)c2cc(-c3ccc(C(F)(F)F)cc3Cl)ccc2n1 [Example 124] | 1 to 10 | > 20
7 | CCOc1nc(N)nc2ccc(-c3ccc(C(=O)N(C)C)cc3)cc12 [Example 125, 4-(2-Amino-4-ethoxy-quinazolin-6-yl)-N,N-dimethyl-benzamide] | 0.3 to 1 | > 20
8 | CCOc1nc(N)nc2ccc(-c3ccc(C(=O)N4CCCC4)cc3)cc12 [Example 126, [4-(2-Amino-4-ethoxy-quinazolin-6-yl)-phenyl]-pyrrolidin-1-yl-methanone] | 1 to 10 | > 20
9 | CC(C)Oc1nc(N)nc2ccc(-c3ccc(C(=O)N(C)C)cc3)cc12 [Example 127, 4-(2-Amino-4-isopropoxy-quinazolin-6-yl)-N,N-dimethyl-benzamide] | 1 to 10 | > 20
10 | CC(C)Oc1nc(N)nc2ccc(-c3ccc(C(=O)N4CCOCC4)cc3)cc12 [Example 128, [4-(2-Amino-4-isopropoxy-quinazolin-6-yl)-phenyl]-morpholin-4-yl-methanone] | 1 to 10 | > 20
11 | CCOc1nc(N)nc2ccc(-c3ccc(C(=O)NCc4ccccc4)cc3)cc12 [Example 149, 4-(2-Amino-4-ethoxy-quinazolin-6-yl)-N-benzyl-benzamide] | 1 to 10 | > 20
12 | CCOc1nc(N)nc2ccc(-c3ccc(C(=O)NCC(C)C)cc3)cc12 [Example 150, 4-(2-Amino-4-ethoxy-quinazolin-6-yl)-N-isobutyl-benzamide] | 1 to 10 | 10 to 20
13 | CCOc1nc(N)nc2ccc(-c3ccc(C(=O)NC4CCCCC4)cc3)cc12 [Example 151, 4-(2-Amino-4-ethoxy-quinazolin-6-yl)-N-cyclohexyl-benzamide] | 1 to 10 | 10 to 20
14 | CCCCNC(=O)c1ccc(-c2ccc3nc(N)nc(OCC)c3c2)cc1 [Example 152, 4-(2-Amino-4-ethoxy-quinazolin-6-yl)-N-butyl-benzamide] | 0.3 to 1 | > 20
15 | CCOc1nc(N)nc2ccc(-c3ccc(C(=O)NC(C)(C)C)cc3)cc12 [Example 153, 4-(2-Amino-4-ethoxy-quinazolin-6-yl)-N-tert-butyl-benzamide] | 0.3 to 1 | 10 to 20
16 | CCOc1nc(N)nc2ccc(-c3ccc(C(=O)NC4CCCC4)cc3)cc12 [Example 154, 4-(2-Amino-4-ethoxy-quinazolin-6-yl)-N-cyclopentyl-benzamide] | 0.3 to 1 | 10 to 20
17 | CCOc1nc(N)nc2ccc(-c3ccc(C(=O)NC(C)C)cc3)cc12 [Example 155, 4-(2-Amino-4-ethoxy-quinazolin-6-yl)-N-isopropyl-benzamide] | 0.3 to 1 | 10 to 20
18 | CCOc1nc(N)nc2ccc(-c3ccc(C(=O)NOC)cc3)cc12 [Example 156, 4-(2-Amino-4-ethoxy-quinazolin-6-yl)-N-methoxy-benzamide] | 0.3 to 1 | > 20
19 | CCOc1nc(N)nc2ccc(-c3ccc(C(=O)NCc4ccco4)cc3)cc12 [Example 157, 4-(2-Amino-4-ethoxy-quinazolin-6-yl)-N-furan-2-ylmethyl-benzamide] | 1 to 10 | > 20
20 | CCOc1nc(N)nc2ccc(-c3ccc(C(=O)N4CCSC4)cc3)cc12 [Example 158, [4-(2-Amino-4-ethoxy-quinazolin-6-yl)-phenyl]-thiazolidin-3-yl-methanone] | 1 to 10 | > 20
21 | CCOc1nc(N)nc2ccc(-c3ccc(C(=O)NCCN(C)C)cc3)cc12 [Example 159] | < 0.3 | < 10

Row | Compound | EC50 (HCV replicon) [µM] | CC50 at 3 days [1] [µM]
22 | CCOc1nc(N)nc2ccc(-c3ccc(C(=O)Nc4ccccn4)cc3)cc12 [Example 160, 4-(2-Amino-4-ethoxy-quinazolin-6-yl)-N-pyridin-2-yl-benzamide] | 1 to 10 | > 20
23 | CCOc1nc(N)nc2ccc(-c3ccc(C(=O)Nc4ccc(F)cc4)cc3)cc12 [Example 161, 4-(2-Amino-4-ethoxy-quinazolin-6-yl)-N-(4-fluoro-phenyl)-benzamide] | 0.3 to 1 | < 10
24 | CCOc1nc(N)nc2ccc(-c3ccc(C(=O)N4CCSCC4)cc3)cc12 [Example 162, [4-(2-Amino-4-ethoxy-quinazolin-6-yl)-phenyl]-thiomorpholin-4-yl-methanone] | 1 to 10 | > 20
25 | CCOc1nc(N)nc2ccc(-c3ccc(C(=O)NC4=NCCS4)cc3)cc12 [Example 163, 4-(2-Amino-4-ethoxy-quinazolin-6-yl)-N-(4,5-dihydro-thiazol-2-yl)-benzamide] | 1 to 10 | > 20
26 | CCOc1nc(N)nc2ccc(-c3ccc(C(=O)NC)c(Cl)c3)cc12 [Example 164, 4-(2-Amino-4-ethoxy-quinazolin-6-yl)-2-chloro-N-methyl-benzamide] | 1 to 10 | > 20
27 | CCOc1nc(N)nc2ccc(-c3ccc(C(=O)NC4CC4)c(Cl)c3)cc12 [Example 165, 4-(2-Amino-4-ethoxy-quinazolin-6-yl)-2-chloro-N-cyclopropyl-benzamide] | 1 to 10 | > 20
28 | CCOc1nc(N)nc2ccc(-c3cccc(O)c3)cc12 [Example 166, 3-(2-Amino-4-ethoxy-quinazolin-6-yl)-phenol] | 1 to 10 | 10 to 20
29 | CCOc1nc(N)nc2ccc(-c3ccc(C(=O)NC4CC4)cc3)cc12 [Example 167, 4-(2-Amino-4-ethoxy-quinazolin-6-yl)-N-cyclopropyl-benzamide] | < 0.3 | > 20
30 | CCOc1nc(N)nc2ccc(-c3cccc(C(=O)NC)c3)cc12 [Example 168, 3-(2-Amino-4-ethoxy-quinazolin-6-yl)-N-methyl-benzamide] | 1 to 10 | > 20
31 | CC(C)Oc1nc(N)nc2ccc(-c3ccc(C(=O)N4CCCCC4)cc3)cc12 [Example 169, [4-(2-Amino-4-isopropoxy-quinazolin-6-yl)-phenyl]-piperidin-1-yl-methanone] | 1 to 10 | > 20
32 | CC(C)Oc1nc(N)nc2ccc(-c3ccc(C(=O)NCc4ccccc4)cc3)cc12 [Example 170, 4-(2-Amino-4-isopropoxy-quinazolin-6-yl)-N-benzyl-benzamide] | 0.3 to 1 | < 10
33 | CC(C)CNC(=O)c1ccc(-c2ccc3nc(N)nc(OC(C)C)c3c2)cc1 [Example 171, 4-(2-Amino-4-isopropoxy-quinazolin-6-yl)-N-isobutyl-benzamide] | 0.3 to 1 | 10 to 20
34 | CC(C)Oc1nc(N)nc2ccc(-c3ccc(C(=O)NC4CCCCC4)cc3)cc12 [Example 172, 4-(2-Amino-4-isopropoxy-quinazolin-6-yl)-N-cyclohexyl-benzamide] | 0.3 to 1 | < 10
35 | CCCCNC(=O)c1ccc(-c2ccc3nc(N)nc(OC(C)C)c3c2)cc1 [Example 173, 4-(2-Amino-4-isopropoxy-quinazolin-6-yl)-N-butyl-benzamide] | < 0.3 | < 10
36 | CC(C)Oc1nc(N)nc2ccc(-c3ccc(C(=O)NC(C)(C)C)cc3)cc12 [Example 174, 4-(2-Amino-4-isopropoxy-quinazolin-6-yl)-N-tert-butyl-benzamide] | 0.3 to 1 | 10 to 20
37 | CC(C)Oc1nc(N)nc2ccc(-c3ccc(C(=O)NC4CCCC4)cc3)cc12 [Example 175, 4-(2-Amino-4-isopropoxy-quinazolin-6-yl)-N-cyclopentyl-benzamide] | < 0.3 | < 10
38 | CC(C)NC(=O)c1ccc(-c2ccc3nc(N)nc(OC(C)C)c3c2)cc1 [Example 176, 4-(2-Amino-4-isopropoxy-quinazolin-6-yl)-N-isopropyl-benzamide] | < 0.3 | 10 to 20
39 | CONC(=O)c1ccc(-c2ccc3nc(N)nc(OC(C)C)c3c2)cc1 [Example 177, 4-(2-Amino-4-isopropoxy-quinazolin-6-yl)-N-methoxy-benzamide] | < 0.3 | 10 to 20
40 | CC(C)Oc1nc(N)nc2ccc(-c3ccc(C(=O)NCCN(C)C)cc3)cc12 [Example 178, 4-(2-Amino-4-isopropoxy-quinazolin-6-yl)-N-(2-dimethylamino-ethyl)-benzamide] | < 0.3 | < 10
41 | CC(C)Oc1nc(N)nc2ccc(-c3ccc(C(=O)Nc4ccc(F)cc4)cc3)cc12 [Example 179, 4-(2-Amino-4-isopropoxy-quinazolin-6-yl)-N-(4-fluoro-phenyl)-benzamide] | 0.3 to 1 | < 10
42 | CC(C)Oc1nc(N)nc2ccc(-c3ccc(C(=O)N4CCSCC4)cc3)cc12 [Example 180, [4-(2-Amino-4-isopropoxy-quinazolin-6-yl)-phenyl]-thiomorpholin-4-yl-methanone] | 1 to 10 | 10 to 20
